According to BindingDB's records for PubMed 1346637 (Mayo Clinic, 1992):

Legend:
[1] = target: T1, Muscarinic acetylcholine receptor M5 (Homo sapiens, UniProt P08912)
T1 sequence (P08912 whole entry): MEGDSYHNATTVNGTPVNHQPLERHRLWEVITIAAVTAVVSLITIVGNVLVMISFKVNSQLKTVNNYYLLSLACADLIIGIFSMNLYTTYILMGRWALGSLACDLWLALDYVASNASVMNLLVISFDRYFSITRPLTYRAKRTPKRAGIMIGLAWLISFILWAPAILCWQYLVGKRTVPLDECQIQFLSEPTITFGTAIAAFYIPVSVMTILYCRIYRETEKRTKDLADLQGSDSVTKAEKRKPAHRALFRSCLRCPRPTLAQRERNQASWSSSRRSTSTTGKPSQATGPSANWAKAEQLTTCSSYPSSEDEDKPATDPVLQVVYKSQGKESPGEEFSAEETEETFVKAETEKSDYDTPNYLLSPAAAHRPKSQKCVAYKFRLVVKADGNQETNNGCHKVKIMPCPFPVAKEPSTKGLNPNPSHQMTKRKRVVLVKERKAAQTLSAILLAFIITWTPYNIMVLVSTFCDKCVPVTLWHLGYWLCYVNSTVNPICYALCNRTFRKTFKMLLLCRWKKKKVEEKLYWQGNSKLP

[2] = target: T2, Muscarinic acetylcholine receptor M2 (Homo sapiens, UniProt P08172)
T2 sequence (P08172 whole entry): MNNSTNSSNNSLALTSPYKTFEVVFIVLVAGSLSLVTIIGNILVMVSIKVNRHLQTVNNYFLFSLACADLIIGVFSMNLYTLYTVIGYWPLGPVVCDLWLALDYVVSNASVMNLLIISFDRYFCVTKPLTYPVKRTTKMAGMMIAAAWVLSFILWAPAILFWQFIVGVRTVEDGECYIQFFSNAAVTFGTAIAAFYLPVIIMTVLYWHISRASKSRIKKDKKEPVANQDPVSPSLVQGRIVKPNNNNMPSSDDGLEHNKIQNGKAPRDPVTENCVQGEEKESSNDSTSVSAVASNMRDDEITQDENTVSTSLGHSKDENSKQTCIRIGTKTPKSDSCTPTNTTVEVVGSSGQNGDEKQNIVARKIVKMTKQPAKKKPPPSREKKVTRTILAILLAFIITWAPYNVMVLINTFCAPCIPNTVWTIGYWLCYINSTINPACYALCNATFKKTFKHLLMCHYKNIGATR

[3] = target: T3, Muscarinic acetylcholine receptor M4 (Homo sapiens, UniProt P08173)
T3 sequence (P08173 whole entry): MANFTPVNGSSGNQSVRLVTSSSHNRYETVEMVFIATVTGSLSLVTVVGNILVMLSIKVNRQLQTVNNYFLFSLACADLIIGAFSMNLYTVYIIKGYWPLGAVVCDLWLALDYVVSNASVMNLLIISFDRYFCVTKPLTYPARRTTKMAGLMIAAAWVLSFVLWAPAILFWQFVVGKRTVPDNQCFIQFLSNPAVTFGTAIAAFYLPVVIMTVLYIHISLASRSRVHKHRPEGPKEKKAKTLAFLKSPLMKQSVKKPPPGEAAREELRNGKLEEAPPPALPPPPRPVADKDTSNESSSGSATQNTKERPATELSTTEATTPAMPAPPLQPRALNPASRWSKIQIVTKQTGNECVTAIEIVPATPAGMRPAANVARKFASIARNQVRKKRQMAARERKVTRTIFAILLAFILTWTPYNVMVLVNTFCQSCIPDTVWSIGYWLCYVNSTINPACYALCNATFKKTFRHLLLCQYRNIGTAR

| Structure (SMILES) | Ki [1] [nM] | Ki [2] [nM] | Ki [3] [nM] |
| --- | --- | --- | --- |
| CN1CCN(CC/C=C2/c3ccccc3Sc3ccc(S(=O)(=O)N(C)C)cc32)CC1 [MLS000028463] | 4310 | 2100 | 1540 |
| CN1CCN(C2=Nc3ccccc3Oc3ccc(Cl)cc32)CC1 [13-chloro-10-(4-methylpiperazin-1-yl)-2-oxa-9-azatricyclo[9.4.0.0^{3,8}]pentadeca-1(11),3,5,7,9,12,14-heptaene] | 241 | – | 300 |
| CN(C)CCOC1=Cc2ccccc2Sc2ccc(Cl)cc21 [2-Chloro-11-(2-(dimethylamino)ethoxy)dibenzo(b,f)thiepin] | 260 | – | 77 |
| O=C(CCCN1CCC(O)(c2ccc(Br)cc2)CC1)c1ccc(F)cc1 [BROMPERIDOL] | 4800 | 1800 | 1700 |
| CN1CCN(C2=Cc3cc(Cl)ccc3C(=CC#N)c3ccccc32)CC1 [CAS_79781-95-6] | 1100 | 470 | 1000 |
| CN1CCCCC1CCN1c2ccccc2Sc2ccc([S+](C)[O-])cc21 (centres undefined) | 60 | 15 | 19 |
| CC1CCN(CCCC(=O)c2ccc(F)cc2)CC1 [CAS_3575-80-2] | > 10000 | 2400 | 4400 |
| OC(CCN1CCCCC1)(c1ccccc1)C1CC2C=CC1C2 (centres undefined) [1-(bicyclo[2.2.1]hept-5-en-2-yl)-1-phenyl-3-(piperidin-1-yl)propan-1-ol] | 6.3 | – | 2.4 |
| OC(CCN1CCCC1)(c1ccccc1)C1CCCCC1 (centres undefined) [1-Cyclohexyl-1-phenyl-3-pyrrolidin-1-yl-propan-1-ol] | 24 | – | 7 |
| CN(C)CC/C=C1\c2ccccc2Sc2ccc(Cl)cc21 | 25 | – | 18 |
| CN1CCN(C2=Nc3cscc3C(=CC#N)c3cscc32)CC1 [NSC_3086153] | 660 | 62 | 430 |
| CN1CCN(C2=Nc3cc(F)ccc3Cc3ccccc32)CC1 | 17 | 71 | 14 |
| O=C1CC2(CCCC2)CC(=O)N1CCCCN1CCN(c2nsc3ccccc23)CC1 [TIOSPERONE] | 3900 | 180 | 480 |
